Measurements reported in PubChem BioAssay (NCI).
Values joined by “and” are separate entries in the source; they are usually repeats but may differ in a detail not shown here. Equal entries are not always repeated.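 Compound exposure: 48 hours, 5 concentrations, 96-well plates. GI50: concentration for 50% inhibition of growth. Definition used: TGI = concentration required for complete inhibition of growth.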

Columns and labels:
Assay in all cases: NCI anticancer screen, dose series, 48 h
OVCAR-3 ovarian = tested on: OVCAR-3 ovarian
SK-MEL-28 melanoma = tested on: SK-MEL-28 melanoma
SK-OV-3 ovarian = tested on: SK-OV-3 ovarian
SW-620 colon = tested on: SW-620 colon
NCI-H460 lung = tested on: NCI-H460 lung
U251 CNS = tested on: U251 CNS
NCI-H522 lung = tested on: NCI-H522 lung
EKVX NSCLC = tested on: EKVX NSCLC
786-0 renal = tested on: 786-0 renal
SK-MEL-5 melanoma = tested on: SK-MEL-5 melanoma

| SMILES | TGI (OVCAR-3 ovarian) | TGI (SK-MEL-28 melanoma) [µM] | TGI (SK-OV-3 ovarian) [µM] | TGI (SW-620 colon) | TGI (NCI-H460 lung) | TGI (U251 CNS) | TGI (NCI-H522 lung) | TGI (EKVX NSCLC) | TGI (786-0 renal) [µM] | TGI (SK-MEL-5 melanoma) | GI50 (OVCAR-3 ovarian) [µM] | GI50 (SK-MEL-28 melanoma) [µM] | GI50 (SK-OV-3 ovarian) [µM] | GI50 (SK-MEL-5 melanoma) [µM] | GI50 (SW-620 colon) [µM] | GI50 (NCI-H460 lung) [µM] | GI50 (U251 CNS) [µM] | GI50 (NCI-H522 lung) | GI50 (EKVX NSCLC) | GI50 (786-0 renal) [µM] |
| --- | --- | --- | --- | --- | --- | --- | --- | --- | --- | --- | --- | --- | --- | --- | --- | --- | --- | --- | --- | --- |
| COC(=O)C1=C(C)N(NC(N)=O)C2(N)N(NC(N)=O)C(C)=C(C(=O)OC)C12C(=O)OC (centres undefined) | > 10 µM | > 100 | > 100 | > 100 µM | > 100 µM | > 100 µM | > 100 µM | > 100 µM | > 100 |  |  |  |  |  |  |  |  |  |  |  |
| O=C(O)c1cc2ccccc2c(O)c1O | 28.9 µM | 18.1 | 29 | 34.8 µM | 41.8 µM | 31 µM | 28.9 µM | 51.1 µM | 27.6 | 8.18 µM |  |  |  |  |  |  |  |  |  |  |
| Cc1c(N=Nc2ccc([N+](=O)[O-])cc2)nc2scc(-c3ccccc3)n12 | > 100 µM | > 100 | > 100 | > 100 µM | > 100 µM | > 100 µM | > 100 µM | > 100 µM | > 100 | > 100 µM |  |  |  |  |  |  |  |  |  |  |
| O=C(/C=C/c1ccc(OCC(=O)N2CCN(c3ccccc3)CC2)cc1)c1ccc(Cl)cc1 | > 100 µM | > 100 | 73.8 | > 100 µM | > 100 µM | 46 µM | > 100 µM | > 83.9 µM | 73.7 | > 100 µM |  |  |  |  |  |  |  |  |  |  |
| Nc1ccccc1C#C/C=C\C#Cc1ccccc1C(F)(F)F | 1.89 µM | > 100 | 24.7 | 41 µM | > 40 µM | 15.7 µM | 34.3 µM | 15.2 µM | 16.7 | 6.3 µM | 0.673 | 18.2 | 0.888 | 0.841 | 1.5 | 1.53 | 0.621 | 2.07 µM | 0.895 µM | 0.545 |
| CCCN(CCCCC(NC(C)=O)C(=O)NCc1ccccc1)C(=O)NCCCl (centres undefined) | > 100 µM | > 100 |  | > 100 µM | > 100 µM | > 100 µM | > 100 µM | > 100 µM | > 100 | > 100 µM |  |  |  |  |  |  |  |  |  |  |
| CC(C)C(=O)/C=C/c1ccccc1 | > 100 µM | > 100 | > 100 | > 100 µM | > 100 µM | > 100 µM | > 100 µM |  | > 100 | > 100 µM |  |  |  |  |  |  |  |  |  |  |
| COc1c(O)c2c(c3cc(C(=O)N4CCc5c4c(O)c(OC)c4[nH]c(C(=O)N6CC7CC78C6=CC(=O)c6[nH]cc(C)c68)cc54)[nH]c13)CCN2C(N)=O (centres undefined) | 48.6 nM and > 100 µM and 0.0456 µg/mL |  |  | 3.46 nM and 456 nM and 0.0038 µg/mL | 1.83 nM and 137 nM and 0.00377 µg/mL | 2.66 nM and 305 nM and 0.00324 µg/mL | 48.3 nM and 0.0372 µg/mL | > 100 µM and 0.0904 µg/mL |  | 27.9 nM and 400 nM and 0.00964 µg/mL |  | 0.354 |  |  |  |  |  | 0.0168 µg/mL | 0.00694 µg/mL | 0.0293 |
| N#Cc1c(C(=O)c2ccccc2)cnn1-c1ccccc1 | > 25 µM | > 25 | > 25 | > 25 µM | > 25 µM | > 25 µM | > 25 µM |  | > 25 | > 25 µM | > 25 | > 25 | > 25 | > 25 | > 25 | > 25 | > 25 | > 25 µM |  | > 25 |
| Cc1ccccc1-c1c(N)nc(NC#N)nc1C(=O)Nc1ccccc1 | > 100 µM | > 100 | > 100 | > 100 µM | > 100 µM | > 100 µM |  | > 100 µM | > 100 | > 100 µM |  |  |  |  |  |  |  |  |  |  |
| C(=N\Nc1ccccn1)/c1ccccn1 |  | > 100 |  | > 100 µM | 3.98 µM | > 100 µM | > 100 µM | > 100 µM |  |  | 0.286 | 0.816 | 0.393 |  | 0.557 | 0.321 | 0.445 | 0.71 µM | 0.348 µM | 0.301 |
| Cc1cn(C2CC(F)C(CO)O2)c(=O)[nH]c1=O (centres undefined) | > 100 µM | > 100 | > 100 |  | > 100 µM |  | > 100 µM | > 100 µM | > 100 | > 100 µM | > 100 | > 100 | > 100 | > 100 |  | 0.963 |  | > 100 µM | > 100 µM | > 100 |
| CCOc1ccc(N=Cc2cccc3cccnc23)cc1 | > 100 µM | > 100 | > 100 | > 100 µM | > 100 µM | > 100 µM |  | > 100 µM | > 100 | > 100 µM |  |  |  |  |  |  |  |  |  |  |
| CC(=O)Nc1ccc(C(=O)N2N=C(C)/C(=C/c3ccccc3O)C2=O)cc1 | > 100 µM | > 100 |  | > 100 µM | > 100 µM |  | > 100 µM | > 100 µM | > 100 | > 100 µM |  |  |  |  |  |  |  |  |  |  |
| N#CC(NNC(=O)c1ccccc1O)c1ccc(O)cc1 (centres undefined) | 74 µM | > 100 | > 100 | > 100 µM | > 100 µM | > 100 µM | > 100 µM |  | > 100 | > 100 µM |  |  |  |  |  |  |  |  |  |  |
| O=Cc1c(-c2cc(O)ccc2O)nc2sccn12 | 6.47 µM | 96.6 | > 100 | > 100 µM | 40.8 µM | 47 µM |  | 93.1 µM | 15.9 | 35.6 µM | 1.6 | 23.8 | 78.5 | 15.8 | 25.3 | 18 | 18.8 |  | 28.4 µM | 3.83 |
| COc1ccc2[nH]c(-c3ccccn3)cc(=O)c2c1 | > 100 µM | > 100 | > 100 | > 100 µM | > 100 µM |  | 65.8 µM | > 100 µM | > 100 | > 100 µM | > 100 |  |  | 28.5 |  |  |  |  |  |  |
| O=S(=O)([O-])c1cccc2cccc(N=Cc3ccccc3[O-])c12.O=S(=O)([O-])c1cccc2cccc(N=Cc3ccccc3[O-])c12.[O]=[U]=[O] | > 100 µM | > 100 | > 100 | > 100 µM | > 100 µM | > 100 µM | > 100 µM | > 100 µM | > 100 |  | > 100 | > 100 | > 100 |  | 42.1 | 55.6 | 30.8 | > 100 µM | > 100 µM | 33.7 |
